target: T1, mGluR2 receptor (metabotropic glutamate receptor 2) (Homo sapiens, UniProt Q14416); experiment: mGluR2 Potentiator Screen, FLIPR, EC10-EC20 glutamate challenge; assay type: cell-based; conditions: EC50 (uM)
T1 construct: expressed in transfected cells
Method: Procedure for mGluR2 Potentiator Screen NLB Methods EC10-EC20 Challenge Cell Culture and Plating:
Cells used for this screen are HEK cells stably transfected with the mGluR2 receptor (metabotropic glutamate receptor 2) and the Gα15 G protein. Clones were identified by functional activity (FLIPR). Cells are grown in growth media containing: DMEM High Glucose with Glutamine and Na Pyruvate (GIBCO), 10% (v/v) Heat inactivate FBS (GIBCO) G418 500 ug/ml (from 50 mg/ml stock) (GIBCO) and Blasticidin 3 ug/ml (from 5 mg/ml stock made in H2O) (Invitrogen).
2 days before the assay cell are trypsinized with 0.25% trysin/EDTA (GIBCO), spun down at 1000 rpm for 5 minutes, resuspended in growth media and plated on polystyrene 384 well black wall/clear bottom poly-D-lysine coated plates at a density of approximately 18,000 cells/well in a volume of 50 μL per well. One day before the assay the growth media is removed from the plates by flicking and replaced with media containing DMEM High Glucose without Glutamine and Na Pyruvate (GIBCO) and 10% (v/v) dialyzed FBS (GIBCO). The reason for the removal of glutamine the day before the assay is to minimize the amount of glutamate that will be present during the assay, as endogenous glutarnate released from the cells can reduce the fluorescent response and interfere with the FLIPR screen.
FLIPR Methods and Data Analysis:
On the day of the assay, the FLIPR assay is performed using the following methods:
The pH is adjusted to 7.4 with 1M NaOH. Prepare a 2 mM (approx.) stock solution of Fluo-4.am (Molecular Probes) dye in DMSO −22 μl DMSO per 50 ug vial (440 μL per 1 mg vial). Make a 1 mM (approx.) flou-4, PA working solution per vial by adding 22 μl of 20% pluronic acid (PA) (Molecular Probes) in DMSO to each 50 ug vial (440 μL per 1 mg vial). Prepare a 250 mM Probenecid (Sigma) stock solution by dissolving 0.71 g into 5 ml 1N NaOH and 5 ml assay buffer (for each liter of assay wash buffer). Make 4 uM (approx.) dye incubation media by adding 2.50 ug vials per 11 ml DMEM high glucose without glutamine (220 ml per 1 mg vial). Add 110 μL probenecid stock per 11 ml (2.5 mM final [concentration]). To the dye media add 3 units/ml of glutamic-pyruvic transaminase (GPT, Sigma) and 3 mM Na Pyruvate. The assay has worked with dye concentrations from 2 uM to 8 uM dye as well. To the assay buffer from drug preparation, add 1.83 mls DMSO and 400 μL. 15.8% P104 (from New Leads biology) per liter for final concentrations of 0.18% DMSO and 0.006% P104. To the assay buffer for cell washing, add probenecid in the same manner and concentration that was used for the dye media.
Remove growth media from cell plates by flicking. Add 50 μl/well dye solution. Incubate 1 hour at 37° C. and 5% CO2. Remove dye solution and wash 3 times with assay buffer+probenecid (100 μl probenecid stock per 10 ml buffer), leaving 30 μL/well assay buffer. Wait at least 10-15 minutes. Compounds and agonist challenge additions are performed with the FLIPR. The in addition is for test compounds, which are added as 15 μL of 4× [concentration] of potentiator. The second 2nd addition is 15 μL of 4× [concentration] of agonist or challenge. This achieves 1× concentration of all compounds only after 2nd addition. The 1st and 2nd additions are performed separately using the FLIPR, which give 2 different data files. Compounds are pretreated at least 30 minutes before agonist addition.
Results are analyzed by dividing the peak fluorescent value of the FLIPR response by the […] to achieve a ratio response. The ratios are then analyzed by curve fitting programs. Since potent compounds can give an inverted U dose response curve (due to effects on endogenous glutamate by the potentiators) points are deleted at concentrations higher than the concentration that gives the maximum effect. Maximum values for dose response curves (forced fitting) are derived from standards on the plate.
Compound Preparation and Glutamate Challenge: […]

T1 sequence (Q14416 19-872, species assumed): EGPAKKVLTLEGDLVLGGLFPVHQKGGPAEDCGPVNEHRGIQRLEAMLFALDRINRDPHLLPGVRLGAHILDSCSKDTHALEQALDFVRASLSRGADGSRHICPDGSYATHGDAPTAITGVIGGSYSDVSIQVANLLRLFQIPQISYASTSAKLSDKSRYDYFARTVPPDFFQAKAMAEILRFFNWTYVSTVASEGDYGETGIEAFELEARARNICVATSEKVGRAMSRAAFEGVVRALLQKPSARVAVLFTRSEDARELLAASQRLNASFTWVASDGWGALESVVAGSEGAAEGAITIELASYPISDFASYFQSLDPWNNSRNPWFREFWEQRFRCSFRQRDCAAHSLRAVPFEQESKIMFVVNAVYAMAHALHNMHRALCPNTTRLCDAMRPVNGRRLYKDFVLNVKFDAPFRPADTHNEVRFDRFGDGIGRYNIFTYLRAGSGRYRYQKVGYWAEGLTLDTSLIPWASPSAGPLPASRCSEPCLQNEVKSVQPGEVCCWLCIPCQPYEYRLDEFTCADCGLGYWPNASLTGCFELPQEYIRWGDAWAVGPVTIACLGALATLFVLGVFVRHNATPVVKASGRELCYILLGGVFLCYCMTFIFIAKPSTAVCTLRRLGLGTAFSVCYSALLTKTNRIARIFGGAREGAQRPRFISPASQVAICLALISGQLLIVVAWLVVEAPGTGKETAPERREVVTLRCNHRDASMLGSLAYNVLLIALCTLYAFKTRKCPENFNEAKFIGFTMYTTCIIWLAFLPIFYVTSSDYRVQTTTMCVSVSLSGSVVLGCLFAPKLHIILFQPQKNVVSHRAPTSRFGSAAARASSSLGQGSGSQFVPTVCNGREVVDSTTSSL

In the case of `CC(=O)C1(c2ccccc2)CCN(Cc2nc3ccccc3n2C)CC1` [compound 66], the EC50 is reported as over 5.23 µM.

same assay, conditions: mGluR2 potentiator screen, Table 7; read-out: EC50

Going from `Cn1c(CN2CCC(c3cc(Cl)ccc3OCC3CCOC3)CC2)nc2ccccc21` (centres unmarked) [compound 203] to `FCn1c(CN2CCC(c3cc(Cl)ccc3OCC3CCOC3)CC2)nc2ccccc21` (centres unmarked) [compound 204], the EC50 rises from 0.712 µM to 3.61 µM (5.1-fold).

Going from `COCCn1c(CN2CCC(c3cc(Cl)ccc3OCC3CCCCO3)CC2)nc2ccccc21` (centres unmarked) [compound 218] to `CCCOc1ccc(Cl)cc1C1CCN(Cc2nc3ccccc3n2CCOC)CC1` [compound 223], the EC50 falls from 1.55 µM to 0.233 µM (6.7-fold).

First: CC(C)COc1ccc(Cl)cc1C1CCN(Cc2nc3ccccc3n2C2CC2)CC1 [compound 179]
Second: COc1ccc(OC)c(C2CCN(Cc3nc4ccccc4n3C)CC2)c1 [compound 163]
The EC50 of the first is 1.9-fold higher: 1.74 µM for the first, 0.928 µM for the second.

same assay, conditions: read-out: EC50

Going from `Cn1c(CN2CCC(c3ccccc3C(F)(F)F)CC2)nc2cc(F)c(F)cc21` [compound 261] to `C#CCOc1ccc(Cl)cc1C1CCN(Cc2nc3ccccc3n2C)CC1` [compound 238], the EC50 falls from 2.31 µM to 0.0781 µM (30-fold). The second is the more potent here.

Compared with `COc1ccccc1C1(OC)CCN(Cc2nc3ccccc3n2CCF)CC1C` (centres unmarked) [compound 335], `CCOc1ccc(Cl)cc1C1CCN(Cc2nc3ccccc3n2CCOC)CC1` [compound 228] is 56-fold lower in EC50: 10.4 µM for the first, 0.185 µM for the second.

First: C[C@@H]1CN(Cc2nc3ccccc3n2C)CC[C@@H]1c1ccccc1F (relative stereo) [compound 405]
Second: COc1cc(F)ccc1C1CCN(Cc2nc3ccccc3n2C)CC1 [compound 409]
The EC50 of the first is 2-fold higher: 0.124 µM for the first, 0.0634 µM for the second.

Compared with `FCCn1c(CN2CCC(c3ccccc3F)CC2)nc2ccccc21` [compound 241], `CC(=O)N1CC2(CCN(Cc3nc4ccccc4n3C)CC2)c2cc(C)ccc21` [compound 22] is 18-fold higher in EC50: 0.217 µM for the first, 3.83 µM for the second. The first is the more potent here.

Compared with `Cn1c(CN2CCC(c3ccc(C(=O)NC4CCCC4)cc3)CC2)nc2ccccc21` [compound 437], `COc1ccccc1C1CCN(Cc2nc3cccc(F)c3n2C)CC1` [compound 343] is 320-fold lower in EC50: 5.27 µM for the first, 0.0166 µM for the second.

Compared with `COCCn1c(CN2CCC(c3ccccc3OC)CC2)nc2ccccc21` [compound 248], `Cc1cc(C(=O)N2CC3(CCN(Cc4nc5ccccc5n4C)CC3)c3ccccc32)n(C)n1` [compound 53] is higher in EC50: 0.32 µM for the first, over 6.29 µM for the second. The first is the more potent here.

Compared with `Cn1c(CN2CCC(c3ccc(C(F)(F)F)cc3)C(C)(C)C2)nc2ccccc21` (centres unmarked) [compound 411], `CCN1CC2(CCN(Cc3nc4ccccc4n3C)CC2)c2cc(C)ccc21` [compound 118] is 5.4-fold higher in EC50: 0.633 µM for the first, 3.41 µM for the second. The first is the more potent here.

Compared with `Cn1c(CN2CCC(c3ccccc3F)CC2)nc2cc(-c3ccccc3)ccc21` [compound 280], `Cc1cc(C)c2c(c1)C1(CCN(Cc3nc4ccccc4n3C)CC1)CN2CC(C)C` [compound 125] is 22-fold higher in EC50: 0.176 µM for the first, 3.93 µM for the second.

First: Cn1c(CN2CCC(c3cc(F)cc4c3OCCC4)CC2)nc2ccccc21 [compound 431]
Second: COc1ccc(C2CCN(Cc3nc4ccccc4n3C)CC2)cc1 [compound 421]
The EC50 of the first is 25-fold higher: 5.34 µM for the first, 0.213 µM for the second. The second is the more potent here.

`COCn1c(CN2CCC(c3ccccc3F)CC2)nc2ccccc21` [compound 286] and `C[C@@H]1CN(Cc2nc3ccccc3n2C)CC[C@]1(C)c1cccc(NS(C)(=O)=O)c1` [compound 80] cannot be ordered by EC50: 4.62 µM for the first, over 1.25 µM for the second.

Going from `COc1ccccc1C1CCC(=O)N(Cc2nc3ccccc3n2C)CC1` (centres unmarked) [Entry 291, 5-(2-Methoxy-phenyl)-1-(1-methyl-1H-benzoimidazol-2-ylmethyl)-azepan-2-one] to `COC(=O)CCCCC(=O)N1CC2(CCN(Cc3nc4ccccc4n3C)CC2)c2ccccc21` [compound 51], the EC50 rises from 4.66 µM to 7.13 µM (1.5-fold).

Compared with `COCC(=O)N1CC2(CCN(Cc3nc4ccccc4n3C)CC2)c2cc(Cl)ccc21` [compound 44], `OCCn1c(CN2CCC(c3ccccc3F)CC2)nc2ccccc21` [compound 295] is lower in EC50: over 5.1 µM for the first, 1.74 µM for the second.

Compared with `Cn1c(CN2CCC(c3cc(C(F)(F)F)cc(C(F)(F)F)c3)CC2)nc2ccccc21` [compound 348], `Cn1c(CN2CCC(c3ccc(F)cc3F)CC2)nc2cc(F)ccc21` [compound 423] is 5.7-fold lower in EC50: 0.201 µM for the first, 0.0352 µM for the second.

Compared with `COc1cccc2c1CCCC21CCN(Cc2nc3ccccc3n2C)CC1` [compound 69], `Fc1ccc(C2CCN(Cc3nc4ccccc4n3C3CC3)CC2)cc1` [compound 369] is lower in EC50: over 6.97 µM for the first, 1.77 µM for the second.

First: COc1cc(C(F)(F)F)ccc1C1CCN(Cc2nc3ccccc3n2CCF)CC1 [compound 357]
Second: Cn1c(CN2CCC(c3ccccc3F)CC2)nc2c(C#N)cccc21 [compound 268]
The EC50 of the first is 16-fold lower: 0.105 µM for the first, 1.71 µM for the second.

Compared with `Cn1c(CN2CCC(c3ccccc3C(F)(F)F)CC2)nc2ccccc21` [compound 257], “5-(2-Methoxy-phenyl)-1-(1-methyl-1H-benzoimidazol-2-ylmethyl)-azepan-2-one [Entry 291]” is 8.4-fold higher in EC50: 0.109 µM for the first, 0.916 µM for the second.

First: Cn1c(CN2CCC3(CC2)CN(CC2CC2)c2ccc(Cl)cc23)nc2ccccc21 [compound 129]
Second: Cn1c(CN2CCC(c3ccccc3F)CC2)nc2cccc(Br)c21 [compound 312]
The EC50 of the first is 42-fold higher: 2.51 µM for the first, 0.0601 µM for the second.

First: Cc1cccc2nc(CN3CCC(c4ccccc4F)CC3)n(C)c12 [compound 301]
Second: Cc1nnsc1C(=O)N1CC2(CCN(Cc3nc4ccccc4n3C)CC2)c2ccccc21 [compound 28]
The EC50 of the first is 50-fold lower: 0.0423 µM for the first, 2.11 µM for the second. The first is the more potent here.

Compared with `Cn1c(CN2CC[C@H]3c4ccccc4OC[C@H]3C2)nc2ccccc21` [compound 471], `Cn1c(CN2CCC(c3cc(C(F)(F)F)ccc3F)CC2)nc2c(F)cccc21` [compound 401] is 13-fold lower in EC50: 2.07 µM for the first, 0.161 µM for the second.

`Cc1cc(Cl)ccc1[C@H]1CCN(Cc2nc3ccccc3n2C)C[C@H]1C` (relative stereo) [compound 469] and `CCOc1ccccc1C1CCN(Cc2nc3ccccc3n2C)CC1` [compound 100] cannot be ordered by EC50: over 0.351 µM for the first, 2.91 µM for the second.

First: Cn1c(CN2CCC(c3ccccc3OCC3CCCC3)CC2)nc2ccccc21 [compound 86]
Second: COc1ccccc1C1CCN(Cc2nc3ccccc3n2CF)CC1 [compound 254]
The EC50 of the first is 37-fold higher: 2.31 µM for the first, 0.0624 µM for the second. The second is the more potent here.

Compared with `COc1ccc(F)cc1C1CCN(Cc2nc3ccccc3n2C)CC1` [compound 300], `Cn1c(CN2CCC(c3cc(C(F)(F)F)ccc3F)CC2)nc2cc(F)c(F)cc21` [compound 328] is 7.6-fold higher in EC50: 0.0607 µM for the first, 0.463 µM for the second. The first is the more potent here.

First: CCCCC(=O)N1CC2(CCN(Cc3nc4ccccc4n3C)CC2)c2ccccc21 [compound 62]
Second: COc1ccccc1C1CCN(Cc2nc3cc(Cl)ccc3n2C)CC1 [compound 285]
The EC50 of the first is 5.3-fold higher: 0.261 µM for the first, 0.0493 µM for the second.

Going from `Cn1c(CN2CCC(c3ccccc3)CCC2=O)nc2ccccc21` (centres unmarked) [compound 289] to `COc1ccccc1C1CCN(Cc2nc3c(C#N)cccc3n2C)CC1` [compound 266], the EC50 falls from over 9.88 µM to 3.35 µM.

Compared with `COc1ccc2nc(CN3CCC(c4ccccc4F)CC3)n(C)c2c1` [Entry 278, 2-((4-(2-fluorophenyl)piperidin-1-yl)methyl)-6-methoxy-1-methyl-1H-benzo[d]imidazole], `CCC(=O)N1CC2(CCN(Cc3nc4ccccc4n3C)CC2)c2cc(F)ccc21` [compound 20] is 73-fold higher in EC50: 0.0466 µM for the first, 3.39 µM for the second.

Compared with `C[C@@H]1CN(Cc2nc3ccccc3n2C)CC[C@@H]1c1ccc(C(F)(F)F)c(F)c1` (relative stereo) [compound 465], `Cn1c(CN2CCC(c3ccccc3)CC2)nc2ccccc21` [compound 74] is 1.8-fold lower in EC50: 0.375 µM for the first, 0.212 µM for the second. The second is the more potent here.

Going from `CC(C)Oc1ccc(C2CCN(Cc3nc4ccccc4n3C)CC2)cc1` [compound 412] to `CCCC(=O)N1CC2(CCN(Cc3nc4ccccc4n3C)CC2)c2cc(C)ccc21` [compound 38], the EC50 rises from 0.105 µM to 0.388 µM (3.7-fold). The first is the more potent here.

Work on `Cn1c(CN2CCC(c3cccc(F)c3F)CC2)nc2ccccc21` [compound 452] yielded an EC50 of 0.0202 µM.

Reference: patent US20080280933A1, “BENZIMIDAZOLYL COMPOUNDS” (priority 2006, published 2008)
